In paper PMC10186366 (ACS Pharmacology & Translational Science, 2023):
Where two headings read alike, the source gives them in different places.

Columns and labels:
human GARFTase = target: T1, human GARFTase (Homo sapiens, UniProt P22102); assay: In vitro GARFTase enzyme assay (THF formation from 10-CHOTHF); assay type: biochemical
T1 construct: GARFTase (formyltransferase domain; residues 808–1010); made in house; host or cells: E. coli Rosetta (DE3)pLysS
T1 sequence (P22102 808-1010): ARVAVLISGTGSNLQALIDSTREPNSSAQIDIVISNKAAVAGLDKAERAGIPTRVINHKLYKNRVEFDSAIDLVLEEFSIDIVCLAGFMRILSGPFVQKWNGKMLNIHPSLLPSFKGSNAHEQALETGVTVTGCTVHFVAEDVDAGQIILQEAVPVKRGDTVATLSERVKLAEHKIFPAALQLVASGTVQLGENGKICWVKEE
Method: We directly tested inhibition potencies by in vitro assays using purified GARFTase and ATIC (AICARFTase) to calculate inhibition dissociation constants (Ki’s) (Table 2).[45]
Isopropyl β-D-1-thiogalactopyranoside (500 μM) was added, and the cells were incubated at 20 °C for 16–18 h. The cultures were pelleted and resuspended in 40 mL of 25 mM Tris–HCl, pH 7.5, 300 mM NaCl, 5 mM β-mercaptoethanol (β-ME), 10 mM CaCl2, 10 mM MgCl2, 40 mg lysozyme, and 8 U DNAse I (Sigma). The cells were lysed by emulsification.
His-GARFTase was purified from the lysate by ÄKTA FPLC (GE Healthcare) with a Ni-NTA column (Qiagen, Valencia, CA).[48] The column was washed with 5 column volumes (CV) of 25 mM Tris–HCl, pH 8, 300 mM NaCl, 10% glycerol, and 5 mM β-ME. His-GARFTase was eluted with a 0 to 75% gradient of 25 mM Tris–HCl, pH 8, 300 mM NaCl, 10% glyercol, 300 mM imidazole, and 5 mM β-ME over 10 CV. Further purification involved size exclusion chromatography on a Superdex 75 16/60 (GE Healthcare) column with 25 mM Tris–HCl, pH 8, 10 mM β-ME, and 300 mM NaCl. Purified His-GARFTase was stored at 90 μM in 20% glycerol at −80 °C.
GARFTase catalytic activity was measured by monitoring THF formation from 10-CHOTHF.[32],[45],[48] […] Initial slopes were graphed against inhibitor concentrations and fit to a three-parameter nonlinear regression to calculate IC50 values for each compound (GraphPad Prism 8.0). […] Inhibition constants (Ki’s) were calculated from the IC50 values using the equation Ki = IC50/([S]/KM + 1) and the Km and substrate concentration for THF.

[1] = test system: D4 CHO cells (expresses only human FRβ); assay: Cell proliferation assay, D4 CHO subline; assay type: cell-based, Chinese hamster; conditions: 96 h, 2 nM leucovorin, mean (standard error)
Source text: (§1) We used a unique panel of engineered Chinese hamster ovary (CHO) sublines derived from a transporter-null MTXRIIOua^R2-4 CHO subline (R2) and designed to individually express human FRα (RT16), FRβ (D4), RFC (PC43-10), or PCFT (R2/PCFT).[39]−[42] As the CHO sublines are isogenic and differ only in the presence or absence of the human folate transporters, differences in the extent of inhibition of cell proliferation between the cell lines upon treatment with the various compounds provide a robust readout of transport specificities.[25],[26],[29],[30],[43]
(§2) The CHO sublines were treated for 96 h with a range of drug concentrations up to 1000 nM; cell viabilities were measured with a fluorescence assay.[26] […] As a control, we used transporter-null R2 cells.[42] To extend studies to human tumor cells, we also performed experiments in RFC-, PCFT-, and FRα-expressing KB tumor cells.[44] To confirm the contribution of FR-mediated uptake to antitumor activity, for KB cells, we added 200 nM folic acid, which inhibits FR uptake by direct competition without effects on either RFC or PCFT.[25],[26],[28]−[30],[43]
(§3) The MTXRIIOua^R2-4 RFC-, PCFT-, and FRα-null Chinese hamster ovary (CHO) cell line (R2) was a gift from Dr. Wayne Flintoff (University of Western Ontario).[40],[42] Isogenic CHO cell lines were subsequently derived from R2 cells by transfection with RFC, PCFT, or FRα cDNAs to generate PC43-10 (expresses only human RFC), R2/PCFT4 (expresses only human PCFT), RT16 (expresses only human FRα), and D4 (expresses only human FRβ).[25],[26],[39]
(§4) The CHO sublines were cultured in α-minimal essential medium (α-MEM) supplemented with 100 U/mL penicillin/100 μg/mL streptomycin, 2 mM L-glutamine, and 10% bovine calf serum (Sigma-Aldrich). For the PC43-10, R2/PCFT4, RT16, and D4 sublines, 1.5 mg/mL G418 was also added. Seventy-two hours prior to in vitro proliferation assays (below), RT16 and D4 CHO cells were grown in folate-free RPMI with dialyzed fetal bovine serum (DFBS) (Invitrogen) supplemented with 100 U/mL penicillin/[…] streptomycin and 2 mM L-glutamine. FRα-expressing KB nasopharyngeal carcinoma cells were acquired from the American Type Culture Collection (Manassas, VA); cells were grown in complete folate-free RPMI 1640 supplemented with 10% fetal bovine serum, 100 U/mL penicillin/100 μg/mL streptomycin, and 2 mM L-glutamine. Cell lines were authenticated by STR analysis (Genetica DNA Laboratories, Burlington, NC) and tested for Mycoplasma by PCR (Venor GeM Mycoplasma Detection Kit, Sigma). Frozen stocks were generated from authenticated Mycoplasma-free cultures.
(§5) Cell proliferation assays used CHO and KB cells cultured in folate-free-RPMI 1640 media with 10% DFBS, 2 mM L-glutamine, and 100 U/mL penicillin/100 μg/mL streptomycin supplemented with 2 nM (KB, RT16, D4) or 25 nM (R2, PC43-10, R2/PCFT4) leucovorin.[25],[26],[30] Parallel incubations with 200 nM folic acid were performed in viability assays to confirm FR-mediated drug uptake. Cells were plated in 96-well dishes at 2500–5000 cells/well in 200 μL media and treated with a range of C1 inhibitors spanning 0 to 1 μM. Cells were treated at 37 ° C with 5% CO2, and numbers were assayed after 96 h using CellTiter-blue (Promega, Madison, WI) and a fluorescence plate reader.[25],[26]

[2] = test system: R2/PCFT4 CHO cells (expresses only human PCFT); assay: Cell proliferation assay, R2/PCFT4 CHO subline; assay type: cell-based, Chinese hamster; conditions: 96 h, 25 nM leucovorin, mean (standard error)
Source text: as §1, §2, §3, §4, §5

SHMT2 = target: T2, SHMT2 (Homo sapiens, UniProt P34897); assay: SHMT2 coupled enzyme assay with MTHFD2 (NADH production); assay type: biochemical; conditions: mean (standard error), at least three replicate assays
T2 construct: N-terminal His6-tagged SHMT2 (residues 30–504); made in house; host or cells: E. coli Rosetta (DE3)pLysS
T2 sequence (P34897 30-504): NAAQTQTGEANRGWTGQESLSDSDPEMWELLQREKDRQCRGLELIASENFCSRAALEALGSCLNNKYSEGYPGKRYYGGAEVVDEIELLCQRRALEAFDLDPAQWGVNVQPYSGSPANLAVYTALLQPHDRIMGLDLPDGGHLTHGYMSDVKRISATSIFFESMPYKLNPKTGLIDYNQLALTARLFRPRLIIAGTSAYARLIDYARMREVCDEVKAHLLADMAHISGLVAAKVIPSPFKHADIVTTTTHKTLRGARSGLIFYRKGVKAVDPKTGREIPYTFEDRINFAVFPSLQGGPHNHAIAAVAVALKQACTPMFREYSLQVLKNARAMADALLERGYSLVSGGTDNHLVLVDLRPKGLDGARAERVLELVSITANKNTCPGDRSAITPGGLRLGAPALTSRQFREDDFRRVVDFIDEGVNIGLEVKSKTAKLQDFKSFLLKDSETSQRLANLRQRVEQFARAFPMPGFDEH
Method: N-terminal His6-tagged SHMT2 (residues 30–504) and full-length MTHFD2 were expressed in Rosetta (DE3)pLysS cells. One liter cultures were grown in LB media with 100 mg/mL ampicillin and 35 mg/mL chloramphenicol at 37 °C until the OD600 was 0.6. […] The cells were pelleted and resuspended in 25 mL of 25 mM Tris–HCl, pH 7.5, 300 mM NaCl, and 5 mM β-Me. To lyse the cells, 40 mg lysozyme and 8 U DNAse I were added followed by incubation on ice for 15 min. The cells were then lysed by emulsification.
Purification of His-SHMT2 and His-MTHFD2 was by Ni-affinity chromatography (above). For further purification of His-SHMT2, pyridoxal 5′-phosphate (PLP) was added (3-fold excess to His-SHMT2) followed by incubation for 16–18 h. Further purification was by size exclusion chromatography on a Superdex 200 16/60 column (GE Healthcare) with monitoring of PLP absorbance at 435 nm. Purified His-SHMT2 was stored in 20 mM sodium phosphate buffer, pH 7.5, 100 mM potassium chloride, 0.2 mM EDTA, and 5 mM β-ME. To further purify MTHFD2, size exclusion chromatography was performed using a Superdex 200 16/60 column (GE Healthcare). His-MTHFD2 was stored in 50 mM Tris–HCl buffer, pH 7.5, 250 mM sodium chloride, 5% glycerol, and 0.5 mM tris(2-chloroethyl) phosphate (TCEP).
Kinetic measurements were recorded in triplicate in a UV-transparent 96-well plate (Costar 3635) at 298 nm using a BioTek Synergy Neo2 Plate Reader. Initial slopes were graphed against inhibitor concentrations and fit to a three-parameter nonlinear regression to calculate IC50 values for each compound (GraphPad Prism 8.0). […] SHMT2 activity was assayed by monitoring NADH production with a coupled assay including 500 nM His-SHMT2 and 10 μM His-MTHFD2 (1:200 molar ratio His-SHMT2/His-MTHFD2). NADH production by His-MTHFD2 was monitored by fluorescence at 470 nm with excitation at 360 nm (Synergy Neo2 Biotek plate reader). Inhibition constants (Ki’s) were calculated from the IC50 values using the equation Ki = IC50/([S]/KM + 1) and the Km and substrate concentration for THF. The THF concentration in the reaction was 50 mM.

[3] = monoglutamyl antifolates, mean (standard error), at least three replicate assays, tested up to 150 μM, read-out: GARFTase Ki

Ki (human GARFTase; [3]) [nM]	melting point [°C]	Structure (SMILES)	Ki (human GARFTase) [nM]	IC50 [1] [nM]	IC50 [2] [nM]	Ki (SHMT2) [nM]	GARFTase potency of 9 relative to 2 (human GARFTase; ratio of Ki values) [fold]	GARFTase potency of 9 relative to 10 (human GARFTase; ratio of Ki values) [fold]
		Nc1nc2sc(CCCCc3ccc(C(=O)N[C@@H](CCC(=O)O)C(=O)O)nc3)cc2c(=O)[nH]1 [Compound 4, (5-(4-(2-Amino-4-oxo-3,4-dihydrothieno[2,3-d]pyrimidin-6-yl)butyl)picolinoyl)-L-glutamic Acid]	> 150000	60.8	318			
26700	125.8 to 126.2	Nc1nc2sc(CCCCc3cccc(C(=O)N[C@@H](CCC(=O)O)C(=O)O)n3)cc2c(=O)[nH]1 [Compound 3, (6-(4-(2-Amino-4-oxo-3,4-dihydrothieno[2,3-d]pyrimidin-6-yl)butyl)picolinoyl)-L-glutamic Acid]		41.9	> 1000			
		Nc1nc2sc(CCCc3ccc(C(=O)N[C@@H](CCC(=O)O)C(=O)O)cc3)cc2c(=O)[nH]1 [Compound 1]				67300		
> 150000	121.7 to 122.6	Nc1nc2sc(CCCCc3ccc(C(=O)N[C@@H](CCC(=O)O)C(=O)O)c(F)c3)cc2c(=O)[nH]1 [Compound 7, (4-(4-(2-Amino-4-oxo-3,4-dihydrothieno[2,3-d]pyrimidin-6-yl)butyl)-2-fluorobenzoyl)-L-glutamic Acid]		1.14	> 1000			
3100		Nc1nc2sc(CCCc3csc(C(=O)N[C@@H](CCC(=O)O)C(=O)O)c3F)cc2c(=O)[nH]1 [Compound 8, (4-(3-(2-Amino-4-oxo-3,4-dihydrothieno[2,3-d]pyrimidin-6-yl)propyl)-3-fluorothiophene-2-carbonyl)-L-glutamic Acid]		0.26	> 1000			
13700	128 to 129.7	Nc1nc2sc(CCCCc3cnc(C(=O)N[C@@H](CCC(=O)O)C(=O)O)c(F)c3)cc2c(=O)[nH]1 [Compound 5, (5-(4-(2-Amino-4-oxo-3,4-dihydrothieno[2,3-d]pyrimidin-6-yl)butyl)-3-fluoropicolinoyl)-L-glutamic Acid]		0.25	344			

Structure (SMILES)	Ki (human GARFTase; [3]) [nM]	melting point [°C]	Ki (human GARFTase) [nM]	IC50 [1] [nM]	IC50 [2] [nM]	Ki (SHMT2) [nM]	GARFTase potency of 9 relative to 2 (human GARFTase; ratio of Ki values) [fold]	GARFTase potency of 9 relative to 10 (human GARFTase; ratio of Ki values) [fold]
Nc1nc2sc(CCCc3ccc(C(=O)N[C@@H](CCC(=O)O)C(=O)O)c(F)c3)cc2c(=O)[nH]1 [Compound 6, (4-(3-(2-Amino-4-oxo-3,4-dihydrothieno[2,3-d]pyrimidin-6-yl)propyl)-2-fluorobenzoyl)-L-glutamic Acid]	> 150000	128 to 129.8		0.48	591	27600		
Nc1nc2sc(CCCCc3csc(C(=O)N[C@@H](CCC(=O)O)C(=O)O)c3F)cc2c(=O)[nH]1 [Compound 9, (4-(4-(2-Amino-4-oxo-3,4-dihydrothieno[2,3-d]pyrimidin-6-yl)butyl)-3-fluorothiophene-2-carbonyl)-L-glutamic Acid]		142.3 to 143.5	170	0.48	167		17	25
